Measured values reported in PMC10610188, “Structure–Activity Relationship Studies of Chalcones and Diarylpentanoids with Antitumor Activity: Potency and Selectivity Optimization” (Pharmaceuticals, 2023).
Read-outs that look alike come from different tables or passages of the source.

Legend:
HCT116 p53^+/+ cells [1] = details: SRB assay, cited from earlier work
HCT116 p53^−/− cells [2] = test: SRB growth inhibition assay in HCT116 p53-/- cells; type: cell-based, human; details: for SI1: Selective index 1: GI50 of HCT116 p53^−/−/GI50 of HCT116 p53^+/+; for GI50: Homo sapiens, HCT-116, SRB assay, 48 h of treatment
Procedure: (§1) To study the in vitro antitumor potential of chalcone CM-M345 (1) and diarylpentanoid BP-C4 (2) analogues, the sulforhodamine B (SRB) assay was used to evaluate the antiproliferative activity in human colorectal HCT116 cancer cells. To assess their cytotoxicity toward normal cells, the antiproliferative effect of these compounds was also tested in human fibroblasts HFF-1 cells. In order to confirm if inhibition of proliferation was associated with p53 activation in HCT116 p53^+/+ cells, all compounds were also tested in HCT116 cells in which p53 was knocked out (HCT116 p53^−/−) and the selective index was calculated and compared to the compounds CM-M345 (1) and BP-C4 (2), for which p53-dependent antiproliferative activity was previously reported by our research group (Table 1).
(§2) The colorectal adenocarcinoma HCT116 cells (HCT116 p53^+/+) and its p53-null isogenic derivative (HCT116 p53^−/−) were given by Prof. Vogelstein (The Johns Hopkins Kimmel Cancer Center, Baltimore, USA); the normal human fibroblasts HFF-1 cell lines were from ATCC (Rockville, MD, USA). Human cells were cultured in RPMI-1640 with UltraGlutamine (Lonza, VWR, Portugal) with 10% FBS (Gibco, Alfagene, Portugal) at 37 °C with 5% CO2. The SH-SY5Y cells were cultured in DMEM/F-12 (Lonza) and 10% FBS and 2mM L-glutamine (Gibco). The cells were incubated at 37 °C in a humidified atmosphere of 5% CO2. Mycoplasma was routinely checked using the MycoAlert™ PLUS kit (Lonza). […]

p53–MDM2 interaction = target: T1, p53–MDM2 interaction (Homo sapiens, UniProt Q00987); test: Yeast-based p53-MDM2 interaction screening assay; type: cell-based; details: 10 μM
T1 construct: expressed in transfected cells; host or cells: Saccharomyces cerevisiae strain CG379
Source text: The possible activation of p53 by inhibiting its interaction with MDM2 was investigated using the yeast-based screening assay previously developed by our group. In this assay, compounds that inhibit p53–MDM2 interaction will re-establish the p53-induced growth-inhibitory effect, which was abolished by MDM2 [43].
In the yeast targeted screening assay, Saccharomyces cerevisiae (strain CG379) expressing human wt p53 alone and combined with human MDM2 were used as described. For the expression of human proteins (routinely grown in minimal selective medium), the cells were diluted to 0.05 OD600 in the selective induction medium with 2% (w/w) galactose, 1% (w/w) raffinose, 0.7% (w/w) yeast nitrogen base without amino acids from Difco (Quilaban, Sintra, Portugal), and all the amino acids necessary for yeast growth ([…]) except leucine and tryptophan. The yeast cells were incubated at 30 °C under continuous orbital shaking (200 rpm) with […] compounds or 0.1% DMSO only for over 42 h. Yeast growth was analyzed by counting the number of colony-forming units (CFUs) after 2 days of incubation at 30 °C on Sabouraud Dextrose Agar from Liofilchem (Frilabo, Porto, Portugal).

HFF-1 cells [3] = test: SRB growth inhibition assay in normal fibroblasts HFF-1; type: cell-based, human; details: for SI2: Selective index 2: GI50 of HFF-1/GI50 of HCT116 p53^+/+; for GI50: Homo sapiens, HFF-1, SRB assay, 48 h of treatment
Procedure: as §1, §2

HCT116 p53^+/+ cells [4] = test: SRB growth inhibition assay in HCT116 p53+/+ cells; type: cell-based, human; details: for GI50: SRB assay, 48 h of treatment
Procedure: as §1, §2

human cancer cells = tested on: human cancer cells; design: method as in PMID 34170069, doi:10.1016/j.arabjc.2016.04.015; details: read-out: GI50 against human cancer cells; cited from earlier work
HFF-1 cells [5] = tested on: HFF-1 cells; design: method as in Moreira et al. [21]; details: SRB assay; ref Moreira et al. [21]; cited from earlier work
HCT116 p53^−/− cells [6] = details: SRB assay, cited from earlier work
Bcl-2 = test: Western blot, Bcl-2 protein levels; type: cell-based, human; details: 5 µM, 48 h, HCT116 p53^+/+
Procedure: (§3) For Western blotting, 1.5 × 10^5 cells (per well) of HCT116 p53^+/+ cells were seeded in six-well plates and allowed to adhere for 24 h, followed by treatment with 5 μM 17 for 48 h. Protein extracts obtained from the human cancer cells were quantified using the Pierce™ BCA Protein Assay Kit (Thermo Scientific, Taper, Sintra, Portugal), according to the manufacturer’s instructions. The proteins were then run in SDS-PAGE and transferred to a Whatman nitrocellulose membrane from Protan (VWR, Carnaxide, Portugal). Proteins were detected using the primary antibodies anti-p53 (Santa Cruz Biotechnology, Dallas, TX, USA, SC-126, 1:5000), anti-BCL-2 (Santa Cruz Biotechnology, SC-7382, 1:200), anti-PARP (Cell Signaling, #9542, 1:1000), and anti-GAPDH (Santa Cruz Biotechnology, SC-32233, 1:10,000), followed by HRP-conjugated secondary antibodies anti-mouse (Santa Cruz Biotechnology, SC-2005, 1:2500) and anti-rabbit (Santa Cruz Biotechnology, SC-2006, 1:2500). GAPDH was used as a loading control. The signal was detected with an ECL Amersham kit from GE Healthcare (VWR) and the ChemiDoc™ MP Imaging System (Bio-Rad, Amadora, Portugal).

PARP = test: Western blot, PARP cleavage; type: cell-based, human; details: 5 µM, 48 h, HCT116 p53^+/+
Procedure: as §3

p53 = test: Western blot, p53 protein levels; type: cell-based, human; details: 5 µM, 48 h, HCT116 p53^+/+
Procedure: as §3

HCT116 p53^+/+ cells [7] = test: Annexin V-FITC apoptosis analysis by flow cytometry; type: cell-based, human; details: 5 µM, 48 h
Procedure: The 1.5 × 10^5 HCT116 p53^+/+ cells/well were seeded in 6-well plates and then treated with 5 µM 17 for 48 h. For the apoptosis analysis, an Annexin V-FITC Apoptosis Detection Kit I (BD Biosciences, Franklin Lakes, NJ, USA) was used following the manufacturer’s instructions. An AccuriTM C6 flow cytometer and the BD Accuri C6 software were used for data acquisition.

T1 sequence (Q00987 whole entry): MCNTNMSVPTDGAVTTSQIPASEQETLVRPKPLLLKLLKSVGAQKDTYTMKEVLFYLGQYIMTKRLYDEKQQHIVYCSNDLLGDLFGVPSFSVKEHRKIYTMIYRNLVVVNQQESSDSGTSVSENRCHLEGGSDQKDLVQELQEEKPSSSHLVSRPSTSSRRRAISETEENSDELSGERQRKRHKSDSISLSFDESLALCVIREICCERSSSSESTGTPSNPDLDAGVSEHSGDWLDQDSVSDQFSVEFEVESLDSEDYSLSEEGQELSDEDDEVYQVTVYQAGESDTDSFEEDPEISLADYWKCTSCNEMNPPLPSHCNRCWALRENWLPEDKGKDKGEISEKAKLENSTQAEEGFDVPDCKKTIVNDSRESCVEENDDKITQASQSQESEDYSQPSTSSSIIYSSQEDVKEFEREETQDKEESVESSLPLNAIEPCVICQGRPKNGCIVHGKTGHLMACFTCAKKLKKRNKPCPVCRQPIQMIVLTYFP

GI50 (HCT116 p53^−/− cells [2]) [µM]	GI50 (HCT116 p53^+/+ cells [4]; Homo sapiens, HCT-116, 48 h) [µM]	melting point [°C]	GI50 (HCT116 p53^+/+ cells [4]) [µM]	SMILES	SI1: Selective index 1 (HCT116 p53^−/− cells [2])	SI2: Selective index 2 (HFF-1 cells [3])	GI50 (HFF-1 cells [3]) [µM]	further results
3.55 ± 0.05	2.8		2.18 ± 0.59	O=C(/C=C/c1ccc(Cl)cc1)/C=C/c1ccc(Cl)cc1 [Compound 17]	1.63	12.43	27.1 ± 1.25	GI50 value in HFF-1 cells relative to HCT116 p53^+/+ cells (fold higher) (HFF-1 cells [3]): 12 fold; Bcl-2 protein levels (Western blot) (Bcl-2): depletion of the protein levels of the anti-apoptotic protein Bcl-2; PARP cleavage (Western blot) (PARP): PARP cleavage; p53 protein levels (Western blot) (p53): did not interfere with the p53 protein levels; apoptosis (annexin-positive cells) (HCT116 p53^+/+ cells [7]): induced apoptosis
14.3 ± 1.1	5.1 to 10.7	129 to 131	5.1 ± 0.32	CCCc1c(OC)ccc(C(=O)/C=C/c2ccc(N3CCOCC3)cc2)c1O [Compound 36, (E)-1-(2-hydroxy-4-methoxy-3-propylphenyl)-3-(4-morpholinophenyl)prop-2-en-1-one]		3.08	15.7 ± 2.8	inhibition of the p53–MDM2 interaction in yeast co-expressing p53 and MDM2 (p53–MDM2 interaction): seems not to be related to the inhibition of p53–MDM2 interaction
> 30	> 30	145 to 146		O=C1C(Cc2ccc(Cl)cc2)COCC1Cc1ccc(Cl)cc1 (centres unmarked) [Compound 31, 3,5-bis(4-chlorobenzyl)tetrahydro-4H-pyran-4-one]			> 30	
5.8 ± 0.21	9.51	145 to 147	9.53 ± 0.25	CC(C)=CCOc1ccc(/C=C2\COC/C(=C\c3ccc(OCC=C(C)C)cc3)C2=O)cc1 [Compound 40, 3,5-bis((E)-4-((3-methylbut-2-en-1-yl)oxy)benzylidene)tetrahydro-4H-pyran-4-one]	0.61	1.48	14.1 ± 0.08	

Second part, the compound before the results:

SMILES	GI50 (HCT116 p53^−/− cells [2]) [µM]	GI50 (HCT116 p53^+/+ cells [4]; Homo sapiens, HCT-116, 48 h) [µM]	melting point [°C]	GI50 (HCT116 p53^+/+ cells [4]) [µM]	SI1: Selective index 1 (HCT116 p53^−/− cells [2])	SI2: Selective index 2 (HFF-1 cells [3])	GI50 (HFF-1 cells [3]) [µM]	further results
COc1cc(/C=C2\COC/C(=C\c3cc(OC)c(OC)c(OC)c3)C2=O)cc(OC)c1OC [BP-M345 (1), reference compound]								GI50 (HCT116 p53^+/+ cells [1]; ref Moreira et al. [21]): 0.17 µM
O=C1/C(=C/c2ccc(Cl)cc2)CSc2ccccc21 [Compound 16]	7.95 ± 0.85	0.69 ± 0.07	139 to 141		11.5	5.25	3.62 ± 0.99	selectivity for p53 compared to BP-C4 (2) (HCT116 p53^−/− cells [2]; HCT116 p53^+/+ over p53^−/−): seven-fold increased; effect on growth of control yeast (vectors) or yeast expressing p53 only (p53–MDM2 interaction): without interfering with the growth; inhibition of the p53–MDM2 interaction in yeast co-expressing p53 and MDM2 (p53–MDM2 interaction): behaved as a potential inhibitor of the p53-MDM2 interaction; antiproliferative activity compared to BP-C4 (2) (HCT116 p53^+/+ cells [4]; HCT116 p53^+/+): nine-fold higher
O=C1/C(=C/c2ccc(Cl)cc2)COC/C1=C\c1ccc(Cl)cc1 [BP-C4 (2), 3,5-bis((E)-4-chlorobenzylidene)tetrahydro-4H-pyran-4-one]					1.62	5.79		GI50 (HCT116 p53^+/+ cells [1]; ref Moreira et al. [21]): 6.25 ± 1.18 µM; GI50 (human cancer cells): 6.25 µM; GI50 (HFF-1 cells [5]): 36.2 ± 5.54 µM; GI50 (HCT116 p53^−/− cells [6]; ref Moreira et al. [21]): 10.1 ± 0.47 µM
CCCc1c(OC)ccc(C(=O)/C=C/c2cc(OC)c(OC)c(OC)c2)c1O [CM-M345 (1), (E)-1-(2-hydroxy-4-methoxy-3-propylphenyl)-3-(3,4,5-trimethoxyphenyl)prop-2-en-1-one]						2.96	7.7 ± 0.8	GI50 (HCT116 p53^+/+ cells [1]; ref Pereira et al. [23]): 2.6 ± 0.2 µM; GI50 (HCT116 p53^−/− cells [6]; ref Pereira et al. [23]): 3.4 ± 0.1 µM
COc1cc(/C=C2\Cc3c(ccc(OC)c3OC)C2=O)cc(OC)c1OC [Compound 4, (E)-2-(3,4,5-trimethoxybenzylidene)-4,5-dimethoxy-2,3-dihydro-1H-inden-1-one]	3.1 ± 0.22		165 to 168		0.82	1.34	5.1 ± 0.9	GI50 (HCT116 p53^+/+ cells [4]; Homo sapiens, HCT-116): 3.8 ± 0.32 µM
